Converted amounts (≈) assume the structure as drawn.
Tests used:
[1] = target: MDM2 (Homo sapiens, UniProt Q00987); assay: HTRF test: inhibition of MDM2-p53 protein binding
[2] = tested on: Blood cancer cells RS4; 11; assay: CellTiter Glo test: growth inhibition of cells; type: cell-based; conditions: Homo sapiens, 11 cells, 72 h, cell viability
[3] = target: T1, MDMX (Homo sapiens, UniProt O15151); assay: HTRF test: inhibition of MDMX-p53 protein binding
T1 sequence (O15151 2-134): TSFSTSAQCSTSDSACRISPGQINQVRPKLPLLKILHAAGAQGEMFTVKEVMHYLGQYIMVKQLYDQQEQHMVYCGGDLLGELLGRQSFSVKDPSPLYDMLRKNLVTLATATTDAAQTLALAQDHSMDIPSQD

[4] = Solubility test; type: physicochemical; conditions: aqueous buffer, kinetic from dmso stock, phosphate buffer pH 7.4, 25° C.
Protocol: Test Example 2: Solubility Test
A test substance and a control drug progesterone were prepared with DMSO into a 10 mM stock solution
30 μL 10 mM stock solution prepared from the test substance and the control drug progesterone was taken and added into bottles in corresponding positions of 96-well sample plate in a specified order. Then, 970 μL of phosphate buffer with pH 7.4 was added into corresponding bottles of the sample plate. The experiments were two parallel experiments. A stirring rod was added into each bottle, and each bottle was covered with a polytetrafluoroethylene/silicon organic resin bottle plug. Then, a sample tray was placed in Eppendorf Thermomixer Comfort and vibrated at a rotating speed of 1100/min at 25° C. for 2 h. 2 h later, the bottle plug was removed, the stirring rod was taken away with a large magnet, and then samples were transferred to a filter plate from the sample plate. A vacuum pump generated a negative pressure to filter the samples. […]
A sample injection plate was placed in a sample injection tray of an automatic sample injection, and samples were evaluated through liquid analysis. […]
Analysis and quantification of the filter of the samples were completed by qualitatively and quantitatively analyzing the peak of a standard product with known concentration through liquid chromatography-mass spectrometry. […]

Chain of MDM2 (Q00987 2-138): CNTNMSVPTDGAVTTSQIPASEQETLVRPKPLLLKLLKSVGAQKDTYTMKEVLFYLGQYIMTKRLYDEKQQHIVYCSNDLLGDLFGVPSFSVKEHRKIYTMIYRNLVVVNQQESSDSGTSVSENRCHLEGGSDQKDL

| IC50 [1] | IC50 [2] | IC50 [3] | solubility at 2 h [4] | Compound |
| --- | --- | --- | --- | --- |
| 10 to 100 nM | ≤ 1000 nM | 10 to 100 nM |  | O=C1N/C(=C\c2c[nH]c3c(F)c(Cl)ccc23)C(=O)N1Cc1ccc(Cl)cc1 [Compound 15, (Z)-5-((6-chloro-7-fluoro-1H-indol-3-yl)methylene)-3-(4-chlorobenzyl)imidazolidine-2,4-dione] |
| 10 to 100 nM | ≤ 1000 nM | 10 to 100 nM |  | N#Cc1ccc(C(CO)N2C(=O)N/C(=C\c3c[nH]c4c(F)c(Cl)ccc34)C2=O)cc1F (stereo not shown) [Compound 37, (Z)-4-(1-(4-((6-chloro-7-fluoro-1H-indol-3-yl)methylene)-2,5-dioxoimidazolidin-1-yl)-2-hydroxyethyl)-2-fluorobenzonitrile] |
| 10 to 100 nM | ≤ 1000 nM | > 100 nM |  | O=C1N/C(=C\c2c[nH]c3c(F)c(Cl)ccc23)C(=O)N1Cc1ccc(Cl)cc1F [Compound 98, (Z)-3-(4-chloro-2-fluorobenzyl)-5-((6-chloro-7-fluoro-1H-indol-3-yl)methylene)imidazolidine-2,4-dione] |
| 10 to 100 nM | 1000 to 10000 nM | 10 to 100 nM |  | COc1c(Cl)ccc2c(/C=C3\NC(=O)N(Cc4ccc(F)c(F)c4)C3=O)c[nH]c12 [Compound 8, (Z)-5-((6-chloro-7-methoxyl-1H-indol-3-yl)methylene)-3-(3,4-difluorobenzyl)imidazolidine-2,4-dione] |

Further lines, the compound ahead of its results:

| Compound | IC50 [1] | IC50 [2] | IC50 [3] | solubility at 2 h [4] |
| --- | --- | --- | --- | --- |
| Cc1c(Cl)ccc2c(/C=C3\NC(=O)N(C(CO)c4ccc(C#N)cc4)C3=O)c[nH]c12 (stereo not shown) [Compound 88, (Z)-4-(1-(4-((6-chloro-7-methyl-1H-indol-3-yl)methylene)-2,5-dioxoimidazolidin-1-yl)-2-hydroxyethyl)benzonitrile] | < 10 nM | ≤ 1000 nM | < 10 nM |  |
| N#Cc1ccc(C(COP(=O)(O)O)N2C(=O)N/C(=C\c3c[nH]c4cc(Cl)ccc34)C2=O)cc1 (stereo not shown) [Compound 40, (Z)-2-(4-((6-chloro-1H-indol-3-yl)methylene)-2,5-dioxoimidazolidin-1-yl)-2-(4-cyanophenyl)ethyl dihydrophosphate] | 10 to 100 nM |  | > 100 nM | 146 µg/mL (≈ 299 µM) |
| N#Cc1ccc(C(CO)N2C(=O)N/C(=C\c3c[nH]c4cc(Cl)ccc34)C2=O)cc1 (stereo not shown) [Compound 38, (Z)-4-(1-(4-((6-chloro-1H-indol-3-yl)methylene)-2,5-dioxoimidazolidin-1-yl)-2-hydroxyethyl)benzonitrile] | < 10 nM | ≤ 1000 nM | 10 to 100 nM | 0.075 µg/mL (≈ 0.184 µM) |
| N#Cc1ccc(C(C(=O)NCCO)N2C(=O)N/C(=C\c3cn(P(=O)(O)O)c4c(F)c(Cl)ccc34)C2=O)cc1F (stereo not shown) [Compound 56, (Z)-(6-chloro-3-((1-(1-(4-cyano-3-fluorophenyl)-2-((2-hydroxyethyl)amino)-2-oxyethyl)-2,5-dioxoimidazolidin-4-ylene)methyl)-7-fluoro-1H-indol-1-yl)phosphonic acid] | 10 to 100 nM | 1000 to 10000 nM | 10 to 100 nM |  |
| N#Cc1ccc(C(C(=O)NC(CO)CO)N2C(=O)N/C(=C\c3c[nH]c4c(F)c(Cl)ccc34)C2=O)cc1F (stereo not shown) [Compound 27, (Z)-2-(4-((6-chloro-7-fluoro-1H-indol-3-yl)methylene)-2,5-dioxoimidazolidin-1-yl)-2-(4-cyano-3-fluorophenyl)-N-(1,3-dihydroxypropan-2-yl)acetamide] | < 10 nM | ≤ 1000 nM | < 10 nM |  |

Reference: patent publication US20250223307A1, “MDM2/MDMX DOUBLE-TARGET INHIBITOR COMPOUND, PRODRUG, PHARMACEUTICAL COMPOSITION, AND PREPARATION METHOD THEREFOR AND USE THEREOF” (GLOBAL HEALTH DRUG DISCOVERY INSTITUTE, priority 2022, published 2025)
